What was measured:
UT-7 cells = assay: UT-7 ^3H-thymidine uptake assay; type: cell-based, human
Description: UT-7 cells are a human megakaryocyte, huGM-CSF responsive cell line obtained from John Adamson, New York Blood Center, New York, N.Y. UT-7 cells were cultured in Iscove's Modified Dulbecco's Medium, 10% FBS, 1× glutamine, 5 \g/ml huGM-CSF. Cells are passaged twice a week at 1×10^5 cells/ml.
Cells were washed twice in phosphate buffered saline (PBS) and resuspended in RPMI medium with 4% FBS and glutamine penicillin streptomycin (GPS) (Irvine Scientific Cat No. 9316 used at 1% volume per volume) at 4×10^4 cells/ml before use. Human SCF along with specific samples were added to 4000 cells/well in 96 well plates and were cultured for 72 hrs. 0.5 uCi/well of ^3H-Thymidine was then added to each plate, plates were harvested and counted 4 hours later.

mouse bone marrow cells = assay: Pre-B cell colony formation in agar cultures; type: cell-based
Source text: The ability of recombinant rat SCF^1-164 (rrSCF^1-164), to act synergistically with IL-7 to enhance lymphoid cell proliferation was studied in agar cultures of mouse bone marrow. In this assay, the colonies formed with rrSCF^1-164 alone contained monocytes, neutrophils, and blast-cells, while the colonies stimulated by IL-7 alone or in combination with rrSCF^1-164 contained primarily pre-B cells. Pre-B cells, characterized as B220^+, sIg^−, cμ^+, were identified by FACS analysis of pooled cells using fluorescence-labeled antibodies to the B220 antigen [Coffman, Immunol. Rev., 69, 5 (1982)] and to surface Ig (FITC-goat anti-K, Southern Biotechnology Assoc., Birmingham, Ala.); and by analysis of cytospin slides for cytoplasmic μ expression using fluorescence-labeled antibodies (TRITC-goat anti-μ, Southern Biotechnology Assoc.,). Recombinant human IL-7 (rhIL-7) was obtained from Biosource International (Westlake Village, Calif.). When rrSCF^1-164 was added in combination with the pre-B cell growth factor IL-7, a synergistic increase in colony formation was observed (Table 16), indicating a stimulatory role of rrSCF^1-164 on early B cell progenitors.

[1] = molecular target: T1, SCF receptor (OCIM1 plasma membrane) (Homo sapiens, UniProt P10721); assay: SCF radioreceptor assay; type: binding
T1 construct: endogenous in cells; host or cells: OCIM1 human erythroleukemic cells, plasma membrane preparation
Description: OCIM1 cells, [Papayannopoulou et al., Blood 72:1029–1038 (1988)] are a human erythroleukemic cell line expressing many human SCF receptors per cell. These cells are grown in Iscove's Modified Dulbecco's Medium, 10% FBS, and 1× glutamine and passaged 3 times a week to 1×10^5 cells/ml.
Preparation of the OCIM1 plasma membrane is as follows with all steps performed on ice.
First, 40 T175 flasks of cells were grown-up in OCIM1 culture medium, for a total of 1.9×10^9 […]. The conditioned medium and 1 mM Phenyl Methyl Sulfonyl Fluoride (PMSF) protease inhibitor, was spun down in 8×250 ml tubes at 1000 rpm for 10 minutes at 4° C. Cells were washed with PBS and repelleted in 4×50 ml centrifuge tubes at 1000 rpm for 10 minutes at 4° C. Cells were resuspended in 20 ml ice cold PBS with glucose sodium pyruvate (Gibco Cat #310-4287). The 20 ml cell solution was put into a pre-pressurized, pre-chilled (4° C.) “cell bomb” designed to lyse the cells. Cells were pressurized at 400–650 PSI for 10 minutes to establish equilibrium. When the pressure is released cell lysis occurs.
At this point the cells were checked for the percentage of cell lysis. 90% lysis was common. The cell suspension was resuspended in 80 mls sucrose buffer (0.25M sucrose, 10 mM Tris, 1 mM EDTA in double distilled (dd) H2O, filtered through a 0.45 u filter, pH 7.0) and divided between two 40 ml screwcap tubes. Tubes were spun at 5900 RPM for 10 minutes in a Beckman J2-21 centrifuge, JA-20 rotor at 4° C. The supernatants were saved and spun one more time as above to further remove any unwanted material. Supernatants were saved and distributed equally into 2 nalgene 40 ml centrifuge tubes. These supernatants were centrifuged at 16,000 RPM 4° C. for 30 min. in J2-21 centrifuge, JA-20 rotor. These supernatants were discarded being careful to save pellets. Each pellet was resuspended in sucrose buffer so there were 20 mls per tube in 4×36 ml plastic ultracentrifuge tubes. Using a 20 ml syringe and a large trochar, the solution was carefully underlayered in each tube with ice cold 36% sucrose solution (36.1 g sucrose/100 mls ddH2O), bringing the level of the liquid to within 2 mm of the top of the tube. Without disturbing the interface, each tube was carefully placed into each of […] titanium ultracentrifuge tubes. Tubes were centrifuged at 27,000 RPM, 4° C. for 75 minutes in an ultracentrifuge. These tubes were carefully removed from the rotor and from titanium buckets, placed in a rack with the 36% sucrose interface visible. The membraneous material at the interface was collected with a pasteur pipet and transfered into 2 clean nalgene 40 ml centrifuge tubes. Volume was brought up to 40 mls with ice cold sucrose buffer. Tubes were balanced and centrifuged as before at 5900 RPM in J2-21 centrifuge. […]

human bone marrow = assay: Human bone marrow colony assay; type: cell-based; conditions: for Colony #/100,000 cells ± SD: COS-1 CM, 20 U/ml EPO, 14 days, colonies ≥0.2 mm
Description: The cDNA of human SCF corresponding to amino acids 1–162 obtained by PCR reactions outlined in Example 3D, was expressed in COS-1 cells as described for the rat SCF in Example 4. COS-1 supernatants were assayed on human bone marrow as well as in the murine HPP-CFC and MC/9 assays. […] The culture conditions of the assay were as follows: human bone marrow from healthy volunteers was centrifuged over Ficoll-Hypaque gradients (Pharmacia) and cultured in 2.1% methyl cellulose, 30% fetal calf serum, 6×10^−5 M 2-mercaptoethanol, 2 mM glutamine, ISCOVE'S medium (GIBCO), 20 U/ml EPO, and 1×10^5 cells/ml for 14 days in a humidified atmosphere containing 7% O2, 10% CO2, and 83% N2. Only those colonies of 0.2 mm in size or larger are indicated.
Recombinant human SCF was tested in agar colony assays on human bone marrow in combination with other growth factors as described above.

[2] = system: murine mast cell line, MC/9; assay: MC/9 ^3H-thymidine uptake assay; type: cell-based; conditions: COS-1 supernatants, concentrations tested
Description: Another useful biological activity of both naturally-derived and recombinant rat SCF is the ability to cause the proliferation of the […] murine mast cell line, MC/9 (ATCC CRL 8306). MC/9 cells are cultured with a source of […] according to the ATCC CRL 8306 protocol. The medium used in the bioassay is RPMI 1640, 4% fetal bovine serum, 5×10^−5M 2-mercaptoethanol, and 1× glutamine-pen-strep. The MC/9 cells proliferate in response to SCF without the requirement for other growth factors. This proliferation is measured by first culturing the cells for 24 h without growth factors, plating 5000 cells in each well of 96 well plates with test sample for 48 h, pulsing for 4 h with 0.5 uCi ^3H-thymidine (specific activity 20 Ci/mmol), harvesting the solution onto glass fiber filters, and then measuring specifically-bound radioactivity. This assay was used in the purification of mammalian cell derived rat SCF after the ACA 54 gel filtration step, section C2 of this Example. Typically, SCF caused a 4–10 fold increase in CPM over background.

KG-1 = KG-1 soft agar cloning assay; type: cell-based, human; conditions: COS-1 supernatant
Description: Another activity of recombinant human SCF is the ability to cause proliferation in soft agar of the human acute myelogenous leukemia (AML) cell line, KG-1 (ATCC CCL 246). COS-1 supernatants from transfected cells were tested in a KG-1 agar cloning assay [Koeffler et al., Science, 200, 1153–1154 (1978)] essentially as described except cells were plated at 3000/ml.

[3] = system: 5-FU treated mouse bone marrow cells; assay: HPP-CFC assay; type: cell-based; conditions: COS-1 supernatants, concentrations tested
Source text: There are a variety of biological activities which can be attributed to the natural mammalian rat SCF as well as the recombinant rat SCF protein. One such activity is its effect on early hematopoietic cells. This activity can be measured in a High Proliferative Potential Colony Forming Cell (HPP-CFC) assay [Zsebo, et al., supra (1988)]. To investigate the effects of factors on early hematopoietic cells, the HPP-CFC assay system utilizes mouse bone marrow derived from animals 2 days after 5-fluorouracil (5-FU) treatment. […] The rat SCF is plated in the presence of CSF-1 or IL-6 in semi-solid agar cultures. The agar cultures contain McCoys complete medium (GIBCO), 20% fetal bovine serum, 0.3% agar, and 2×10^5 bone marrow cells/ml. The McCoys complete medium contains the following components: 1× McCoys medium supplemented with 0.1 mM pyruvate, 0.24× essential amino acids, 0.24× non-essential amino acids, 0.027% sodium bicarbonate, 0.24× vitamins, 0.72 mM glutamine, 25 μg/ml L-serine, and 12 μg/ml L-asparagine. The bone marrow cells are obtained from Balb/c mice injected i.v. with 150 mg/kg 5-FU. The femurs are harvested 2 days post 5-FU treatment of the mice and bone marrow is flushed out. The red blood cells are lysed with red blood cell lysing reagent (Becton Dickenson) prior to plating. Test substances are plated with the above mixture in 30 mm dishes. Fourteen days later the colonies (>1 mm in diameter) which contain thousands of cells are scored. This assay was used throughout the purification of natural mammalian cell-derived rat SCF.

normal human bone marrow = assay: Human CFU-GM assay; type: cell-based; conditions: average of triplicate cultures; SCF = COS-1 supernatant 4 days after transfection

**Q.** Which “activity in the UT-7 assay” value (UT-7 cells; final material after cation exchange chromatography) does the source give for “SCF^1-248: full length recombinant human stem cell factor formed in E. coli” here?
**A.** no activity

**Q.** And the “activity in the UT-7 assay” value (UT-7 cells; material following anion exchange chromatography)?
**A.** active

**Q.** Which results are given for “rhIL-7: Recombinant human IL-7 from Biosource International”?
**A.** Colony Number per 5 × 10^4 mouse bone marrow cells plated (mouse bone marrow cells; 25 ng): 4 ± 2; Colony Number per 5 × 10^4 mouse bone marrow cells plated (mouse bone marrow cells; 50 ng): 13 ± 6; Colony Number per 5 × 10^4 mouse bone marrow cells plated (mouse bone marrow cells; 100 ng): 18 ± 6; Colony Number per 5 × 10^4 mouse bone marrow cells plated (mouse bone marrow cells; 200 ng, mean of triplicate dishes ± SD): 21 ± 6

**Q.** With “SCF^11-164: E. coli human SCF analog, amino acids 11 to 164” as the molecule, how does the “specific activity in the UT-7 assay” value (UT-7 cells) read?
**A.** negligible specific activity

**Q.** And the “specific activity in the radioreceptor assay” value [1]?
**A.** negligible specific activity

**Q.** With “hSCF: Recombinant human SCF tested in agar colony assays; form not stated at Table 13” as the molecule, how does the “Colony #/10^5 cells (14 Days)” value (human bone marrow; agar colony assay, factors alone or combined) read?
**A.** 0

**Q.** “V19.8 human SCF^1-162: recombinant human SCF amino acids 1–162, COS-1 supernatant” was tested. Which “Colony #/100,000 cells ± SD” value (human bone marrow; 50 μl assayed) did it give?
**A.** 22 ± 3

**Q.** And the “Colony #/100,000 cells ± SD” value (human bone marrow; 100 μl assayed)?
**A.** 33 ± 7

**Q.** What about the “activity on human bone marrow” value (human bone marrow; COS-1 supernatants) of the same molecule?
**A.** active on human bone marrow

**Q.** What about the “activity in murine MC/9 assay” value [2] of the same molecule?
**A.** not active

**Q.** What about the “Colony #/3000 Cells ± SD” value (KG-1; 1.5 μl assayed) of the same molecule?
**A.** 6 ± 6

**Q.** What about the “Colony #/3000 Cells ± SD” value (KG-1; 3 μl assayed) of the same molecule?
**A.** 6 ± 4

**Q.** And the “Colony #/3000 Cells ± SD” value (KG-1; 6 μl assayed)?
**A.** 9 ± 5

**Q.** What about the “Colony #/3000 Cells ± SD” value (KG-1; 12 μl assayed) of the same molecule?
**A.** 8 ± 0

**Q.** And the “Colony #/3000 Cells ± SD” value (KG-1; 25 μl assayed, triplicate)?
**A.** 14 ± 0

**Q.** What about the “activity in murine HPP-CFC assay” value [3] of the same molecule?
**A.** not active

**Q.** How did the “specific activity in the UT-7 assay” value (UT-7 cells) turn out when “SCF^1-137: E. coli human SCF analog, amino acids 1 to 137” was run?
**A.** about 25 % of the value for SCF^1-164

**Q.** What about the “specific activity in the radioreceptor assay” value [1] of the same molecule?
**A.** full specific activity

B1: CSF-1: human macrophage colony-stimulating factor (protein, UniProt P09603 33-554, looked up)
Macrophage colony-stimulating …: EEVSEYCSHMIGSGHLQSLQRLIDSQMETSCQITFEFVDQEQLKDPVCYLKKAFLLVQDIMEDTMRFRDNTPNAIAIVQLQELSLRLKSCFTKDYEEHDKACVRTFYETPLQLLEKVKNVFNETKNLLDKDWNIFSKNCNNSFAECSSQDVVTKPDCNCLYPKAIPSSDPASVSPHQPLAPSMAPVAGLTWEDSEGTEGSSLLPGEQPLHTVDPGSAKQRPPRSTCQSFEPPETPVVKDSTIGGSPQPRPSVGAFNPGMEDILDSAMGTNWVPEEASGEASEIPVPQGTELSPSRPGGGSMQTEPARPSNFLSASSPLPASAKGQQPADVTGTALPRVGPVRPTGQDWNHTPQKTDHPSALLRDPPEPGSPRISSLRPQGLSNPSTLSAQPQLSRSHSSGSVLPLGELEGRRSTRDRRSPAEPEGGPASEGAARPLPRFNSVPLTDTGHERQSEGSFSPQLQESVFHLLVPSVILVLLAVGGLLFYRWRRRSHQEPQRADSPLEQPEGSPLTQDDRQVELPV
**Q.** With B1 as the molecule, how does the “Colony #/100,000 cells (±SEM)” value (normal human bone marrow) read?
**A.** 0
